In patent US20150025077A1 (COYOTE PHARMACEUTICALS, INC., priority 2012, published 2015):
pEC50: −log10 of the molar value. Like-named read-outs stand apart in the source and are kept apart here. Each block holds one compound with its values, some of them ahead of it.

Columns and labels:
Sprague-Dawley rats = experiment: Kainic acid induced neurodegeneration and seizure behaviors in rats (Examples 20, 21); assay type: in vivo, rat; details: oral
Excerpt: Seizure behaviors were observed and scored (Ref. R. J. Racine, Modification of seizure activity by electrical stimulation: II. Motor seizure, Electroencephalogr. Clin. […] Modifications were made for the methods). Brain tissues of rats were sectioned on histology slides, and neurons in hippocampus tissues were stained by Nissl. Neurons in dentate gyrus tissues damaged by Kainic acid were quantified. The Memantine composition used in comparison refers to a commercially available NMDA receptor […]. […] Seizure behaviors were observed and scored (Ref. R. J. Racine, Modification of seizure activity by electrical stimulation: II. Motor seizure, Electroencephalogr. Clin. […] Modifications were made for the methods). Brain tissues of rats were sectioned on histology slides, and neurons in hippocampus tissues were stained by Nissl. Neurons damaged by Kainic acid and behavior scores were quantified.

[1] = In-vivo PK of GGA oral formulations in rat; details: plasma; for bioavailability: read-out: oral bioavailability (% F); for half-life: read-out: t½ (converted)
Description: PK Parameters were calculated from noncompartmental analysis (NCA) model using WinNonlin software and the linear/log trapezoidal method.
Parameters that requires 1z: Terminal Half-Life (t1/2)=ln(2)/lz. Calculated using Lambda_z method to find best fit. If necessary, the concentration-time points were manually selected for use in the calculation. Bolded-italicized concentrations indicate points used for calculation.

[2] = Kp (ratio of AUCbrain to AUCplasma) of GGA in rat; assay type: in vivo; details: brain, 4 h, 6 h, 8 h, and 10 h time points
[3] = Katsuno et al., Proc. Natl. Acad. Sci. USA 2003; cited from earlier work
[4] = system: Mouse neuroblastoma Neuro2A cells; experiment: Rescue of amyloid-beta oligomer induced cytotoxicity in Neuro 2a cells (CellTiter-Glo); assay type: cell-based; details: mouse/rat NG108-15, N2a, A-beta (O) together with compound 48 hr, normalized to A-beta (O) treated only, read-out: % viability vs. untreated
Description: Preparation of amyloid-beta oligomer (A-beta (O)): Synthetic wild type A-beta (1-42) was purchased from American Peptide, and first dissolved with hexafluoroisopropanol (HFIP), then dried in the blowing tissue culture hood overnight to form a film in the eppendorf tube. The A-beta peptide film was first resuspended with DMSO to a concentration of 5 mM, further diluted with DMEM containing N2 supplement (Invitrogen) to achieve a concentration of 100 μM, and then sonicated in room temperature water bath for 10 minutes. The 100 μM peptide solution was then incubated at 4° C. for 24 hr and thoroughly vortexed before applied to cells.
Mouse neuroblastoma Neuro2A cells were plated in 96-well plates and cultured in DMEM supplemented with 10% FBS for 24 hr. […] At the end of incubation, cells were harvested and subjected to viability assay using CellTiter-Glo Luminescent Cell Viability Assay Kit (Promega). […] Compound ID numbers in table refer to structures in Table 1 and Table 2.

[5] = system: Rat primary motor neurons; experiment: Axon extension of rat primary motor neurons; assay type: cell-based; details: 72 hrs; read-out: EC50 (cells extending axons)
Description: Rat primary motor neurons were isolated from embryonic spinal cords in accordance with the method of Henderson et al.; J Cohen and G P Wilkin (ed.), Neural Cell Culture, (1995) p69-81 which is herein incorporated by reference in its entirety. Briefly, spinal cords were dissected from day 15 embryo (E15) and incubated in a trypsin solution, and followed by DNase treatment to release spinal cord cells from tissue fragments. The cell suspension was centrifuged to remove tissue fragments. Then motor neurons were enriched by density gradient centrifugation.
Motor neurons were cultured in serum-free neurobasal medium containing insulin, forskolin, 3-isobutyl-1-methylxanthine, neurotrophic factors, Bovine serum albumin, selenium, transferrin, putrescine, progesterone and B27 supplement in tissue culture plate coated with poly-ornithine and laminin.
Rat primary motor neurons were prepared and cultured as described in Example 13. […] The cells extending axons were counted in five different fields for each treatment after 72 hrs. Percentage of positive cells relative to total cells in the same magnification field was calculated and the results were expressed as means+/−standard deviations, n=5.

[6] = system: Mouse Neuro2A neuroblastoma cells; experiment: Neuro2A cells with neurites after GGTI-298 (Example 16); assay type: cell-based; details: 10 μM
Description: Mouse Neuro2A neuroblastoma cells were cultured in DMEM supplemented with 10% FBS for 24 hrs. […] Then differentiation was induced by retinoic acid in DMEM supplemented with 2% FBS. The cell culture was incubated with a Geranylgeranyl Transferase inhibitor, GGTI-298. After 24 hrs incubation, cells with neurites were counted.

Neuro2A cells = Neuro2A cells that extended neurites, with GGTI-298 (Example 18); assay type: cell-based; details: 0.1-1 μM; vehicle 0.0-0.20
Excerpt: After differentiation was induced, cells that extended neurites were counted.

HSP70 = HSP70 expression in neuro2A cells, western blot; assay type: cell-based, mouse; details: for HSP70 western signal (absence of compounds = 1.00): 48 hours, GGTI-298
Description: Differentiation was induced and cells incubated with geranylgeranyl transferase I inhibitor, GGTI-298. Cells were harvested and lysates were prepared and analyzed by western blot for HSP70 and HSP90. Western signals in the absence of the compounds were normalized as 1.00.

[7] = system: Murine neuro2A neuroblastoma cells; experiment: Neurite outgrowth of neuro2A cells with GGTI-298 (Example 30); assay type: cell-based, mouse; details: for Protection % / Median Counts (cells with neurite outgrowth) / ratio of counts relative to no inhibition: CNS-102/CNS-103 experiment; for Median Counts (cells with neurite outgrowth): no inhibition 60.3, PBS 18.5
Description: Differentiation was induced and cells incubated with geranylgeranyl transferase I inhibitor, GGTI-298. After 24 h digital images were taken and neurite outgrowth was quantified. The comparisons of the neuroprotective effect of these three compounds are shown below.
The estimated mean log10 counts, from five replicate wells for each treatment group were calculated by PROC GLM in SAS assuming a pooled estimate of variation.
The estimated mean log 10 counts from five replicate wells for each treatment group were calculated by PROC GLM in SAS assuming a pooled estimate of variation.
Differences in mean log(counts) between treatments for each concentration were calculated using PROC GLM in SAS. The p-value given is for the comparison of the estimated difference to zero, the expected difference value for no treatment effect. The anti-log of the differences represent the estimated ratio of counts (relative effect on inhibition) and are tabulated below along with the lower and upper 95% confidence intervals.

Rap1 = experiment: Prenylation of Rap1 in Neuro2A cells, western blotting; assay type: cell-based, mouse; details: 100 nM; with GGTI-298; percentage of control (GGTI only)
Description: Mouse neuroblastoma Neuro2A cells were cultured in DMEM supplemented with 10% FBS for 24 hrs. The cells were treated with 102GGA derivative compounds for 24 hrs first before GGTase inhibitor GGTI-298 was added to the culture medium for additional 24 hr incubation. […] Both un-prenylated and total Rap1 protein bands were quantified using Image J and normalized to their respective loading control GAPDH. The results for control and each compound treatment were calculated as the ratio of normalized un-prenylated Rap1 to total Rap1, and averaged from two biological repeats of one experiment. The final results were presented as a percentage of the control treatments (GGTI only) from the same batch experiment. The data shown in the chart were averaged from two repeats of one experiment and presented as the ratio of normalized un-prenylated Rap1 to total Rapt Compound ID numbers in table refer to structures in Table 1 and Table 2.

[8] = GGA in 3% Hydroxypropyl Cellulose (Mn=10,262) aqueous suspension
[9] = GGA in 3% Hydroxypropyl Cellulose (Mn=100,000) aqueous suspension
[10] = GGA in 5% Gum Arabic aqueous suspension
[11] = GGA in 5% Gum Arabic+3% Hydroxypropyl Cellulose (Mn=10,262) aqueous suspension
[12] = GGA in 5% Gum Arabic+3% Hydroxypropyl Cellulose (Mn=100,000) aqueous suspension

SMILES: CC12CC3CC(C)(C1)CC(N)(C3)C2 [Memantine, reference compound]
- Hippocampus dentate gyrus neurons damaged (Sprague-Dawley rats; Kainic acid, vehicle 20.9): 3.53 Arbitrary units
- Seizure behaviors scores (Sprague-Dawley rats; Kainic acid, vehicle 34): 36.2

SMILES: CC(=O)CC/C=C(\C)CC/C=C(\C)CC/C=C(\C)CCC=C(C)C [GGA, geranylgeranyl acetone]
- Tmax [1, 8]: 9.33 h
- bioavailability [1, 8]: 35%
- half-life [1, 8]: 18.7 h
- Tmax [1, 9]: 8.66 h
- bioavailability [1, 9]: 41.8%
- half-life [1, 9]: 3.13 h
- Tmax [1, 10]: 7.33 h
- bioavailability [1, 10]: 37.3%
- half-life [1, 10]: 3.43 h
- Tmax [1, 11]: 13.3 h
- bioavailability [1, 11]: 36.5%
- half-life [1, 11]: 6.73 h
- Tmax [1, 12]: 5.33 h
- bioavailability [1, 12]: 58%
- half-life [1, 12]: 10.2 h
- Kp [2]: 0.08 to 0.11
- concentration of GGA required to exert a cytoprotective effect [3]: more than 600 mg per kg per day

SMILES: CC(C)=CCC/C(C)=C/CC/C(C)=C/CCC(=O)C(C)C [Compound 101]
- viability at 1 µM [4]: 126%

- pEC50 [5]: 8.02
SMILES: CC(=O)CC/C=C(/C)CC/C=C(\C)CC/C=C(\C)CCC=C(C)C [CNS-103]
- Mean of cell numbers (cells with neurites) [6]: 0.195 Arbitrary units
- Mean of cell numbers (cells that extended neurites) (Neuro2A cells): 0.20-0.45 Arbitrary units
- Mean of Hippocampus CA3 Neurons Damaged (Sprague-Dawley rats; 12 mg/Kg rat): 8.16 Arbitrary units
- Mean of Hippocampus CA3 Neurons Damaged (Sprague-Dawley rats; 25 mg/Kg rat): 10.64 Arbitrary units
- HSP70 western signal (absence of compounds = 1.00) (HSP70; 100 nM): 1.00
- HSP70 western signal (absence of compounds = 1.00) (HSP70; 1 μM): 1.07
- HSP70 western signal (absence of compounds = 1.00) (HSP70; 10 μM): 0.99
- induction of HSP70 expression (HSP70; various concentrations): failed to induce expression of HSP70
- Protection % ([7]; 10 nM): 19.6%
- Median Counts (cells with neurite outgrowth) ([7]; 10 nM): 26.7
- ratio of counts relative to no inhibition ([7]; 10 nM): 0.443
- Protection % ([7]; 100 nM): 25.8%
- Median Counts (cells with neurite outgrowth) ([7]; 100 nM): 29.3
- ratio of counts relative to no inhibition ([7]; 100 nM): 0.486
- Protection % ([7]; 1000 nM): 24.4%
- Median Counts (cells with neurite outgrowth) ([7]; 1000 nM): 28.7
- ratio of counts relative to no inhibition ([7]; 1000 nM): 0.476
- Protection % ([7]; 10000 nM): −5.3%
- Median Counts (cells with neurite outgrowth) ([7]; 10000 nM): 16.3
- ratio of counts relative to no inhibition ([7]; 10000 nM): 0.270
- maximum protection ([7]; CNS-102/CNS-103 experiment (FIG. 4B)): ~26%
- unprenylated/total RAP1 (%) (Rap1): 96%
